Laboratory results published in article PMC9649612, “Molecular docking and biochemical validation of (-)-syringaresinol-4-O-β-D-apiofuranosyl-(1→2)-β-D-glucopyranoside binding to an allosteric site in monoamine transporters” (Frontiers in Pharmacology, 2022).

Columns and labels:
WT-hNET = target: T1, WT-hNET (Homo sapiens, UniProt P23975); assay: APP+ transport (uptake) in HeLa cells expressing WT-hNET; assay type: cell-based; settings: hNET; kinetic analysis
T1 construct: expressed in transfected cells; host or cells: HeLa
Procedure: (§1) HeLa cells were cultured in Dulbecco’s Modified Eagle’s Medium supplemented with 10% fetal bovine serum, 100 units/ml penicillin, and 100 μg/ml streptomycin at 37°C in a humidified 5% CO2 incubator. Cells were plated in a 6-well culture plate and grown overnight. Cells at ∼70% confluence were transfected with hSERT, hDAT, or hNET cDNA in pcDNA3.1 by lipofectamine 2000. Transfected cells were incubated for 24 h at 37°C with 5% CO2 and then transferred into a 12-well plate placed with polylysine coated slides. After grown for additional 12–16 h, the cells were assayed for APP^+ or ASP^+ fluorescence image acquisition.
(§2) The cells expressing WT or mutants of hSERT, hDAT, or hNET were wet mounted on polylysine coated glass slides in 12-well plates and applied for the indicated treatments. […] The extent of APP^+ accumulated in the cells was determined by confocal imaging analysis. ASP^+ binding to SERT in the cell membrane was measured with digitonin-permeabilized cells ([Li M. et al., 2022a]). […] After removing excess ASP^+ by rapid washing three times, ASP^+ binding was determined by confocal imaging analysis.
(§3) Images were analyzed using Zen Blue software.
(§4) Nonlinear regression fits of experimental and calculated data were performed with Origin (Origin Lab). […]

WT-hDAT = target: T2, WT-hDAT (Homo sapiens, UniProt Q01959); assay: APP+ transport (uptake) in HeLa cells expressing WT-hDAT; assay type: cell-based; settings: hDAT; kinetic analysis
T2 construct: expressed in transfected cells; host or cells: HeLa
Procedure: as §1, §2, §3, §4

WT-hSERT = target: T3, WT-hSERT (Homo sapiens, UniProt P31645); set-up: method as in our previous experiments; settings: ref our previous experiments, read-out: Km for APP+ transport; cited from earlier work
T3 construct: expressed in transfected cells; host or cells: HeLa (ATCC CCL-2), transient, pcDNA3.1
T3 sequence (P31645 whole entry): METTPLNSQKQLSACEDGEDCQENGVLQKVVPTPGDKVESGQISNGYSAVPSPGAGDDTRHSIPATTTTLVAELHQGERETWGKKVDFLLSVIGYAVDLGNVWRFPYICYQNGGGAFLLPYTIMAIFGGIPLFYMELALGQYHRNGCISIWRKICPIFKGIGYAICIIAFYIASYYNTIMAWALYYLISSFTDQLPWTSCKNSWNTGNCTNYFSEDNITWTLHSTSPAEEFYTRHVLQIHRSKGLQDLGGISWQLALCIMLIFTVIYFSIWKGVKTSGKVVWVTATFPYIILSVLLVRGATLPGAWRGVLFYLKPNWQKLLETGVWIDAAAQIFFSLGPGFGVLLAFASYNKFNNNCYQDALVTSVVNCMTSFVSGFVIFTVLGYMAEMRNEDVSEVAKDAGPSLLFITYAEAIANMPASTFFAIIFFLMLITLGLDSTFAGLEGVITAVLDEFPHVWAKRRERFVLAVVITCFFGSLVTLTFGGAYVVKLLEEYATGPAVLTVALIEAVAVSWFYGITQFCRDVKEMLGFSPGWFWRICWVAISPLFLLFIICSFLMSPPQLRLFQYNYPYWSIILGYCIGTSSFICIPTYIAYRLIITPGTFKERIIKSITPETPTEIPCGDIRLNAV

T1 sequence (P23975 whole entry): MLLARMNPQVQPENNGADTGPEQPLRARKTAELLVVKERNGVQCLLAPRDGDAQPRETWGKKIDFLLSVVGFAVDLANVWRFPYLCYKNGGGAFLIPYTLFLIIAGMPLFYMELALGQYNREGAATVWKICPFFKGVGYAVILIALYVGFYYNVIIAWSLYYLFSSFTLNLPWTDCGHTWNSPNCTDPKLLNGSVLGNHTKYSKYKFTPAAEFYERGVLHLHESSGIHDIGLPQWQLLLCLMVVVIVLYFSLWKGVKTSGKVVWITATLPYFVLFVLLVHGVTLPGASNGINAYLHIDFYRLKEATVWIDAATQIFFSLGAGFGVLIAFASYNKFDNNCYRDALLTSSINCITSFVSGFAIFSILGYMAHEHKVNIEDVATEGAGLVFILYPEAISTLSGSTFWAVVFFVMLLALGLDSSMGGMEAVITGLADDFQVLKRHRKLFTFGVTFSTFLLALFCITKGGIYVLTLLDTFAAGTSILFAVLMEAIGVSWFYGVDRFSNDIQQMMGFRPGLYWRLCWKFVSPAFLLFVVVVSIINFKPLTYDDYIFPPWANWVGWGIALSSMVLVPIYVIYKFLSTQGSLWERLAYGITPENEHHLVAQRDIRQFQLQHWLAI
T2 sequence (Q01959 whole entry): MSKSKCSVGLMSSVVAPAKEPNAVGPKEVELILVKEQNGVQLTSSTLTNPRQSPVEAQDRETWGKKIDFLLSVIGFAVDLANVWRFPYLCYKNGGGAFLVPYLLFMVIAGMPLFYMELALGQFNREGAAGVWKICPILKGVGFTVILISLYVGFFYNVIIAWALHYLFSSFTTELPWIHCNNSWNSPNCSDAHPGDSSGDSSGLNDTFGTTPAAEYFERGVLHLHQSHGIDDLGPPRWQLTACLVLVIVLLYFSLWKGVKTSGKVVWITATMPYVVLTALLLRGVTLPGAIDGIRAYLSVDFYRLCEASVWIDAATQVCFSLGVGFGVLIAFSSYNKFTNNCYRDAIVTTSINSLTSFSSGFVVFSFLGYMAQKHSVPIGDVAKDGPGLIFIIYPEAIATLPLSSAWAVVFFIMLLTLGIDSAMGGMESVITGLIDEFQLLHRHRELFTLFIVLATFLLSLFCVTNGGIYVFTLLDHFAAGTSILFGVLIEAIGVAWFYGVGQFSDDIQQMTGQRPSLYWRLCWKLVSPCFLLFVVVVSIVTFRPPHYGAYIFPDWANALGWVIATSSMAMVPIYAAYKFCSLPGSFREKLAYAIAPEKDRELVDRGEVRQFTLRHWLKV

4-[4-(Dimethylamino)phenyl]-1-methylpyridinium [APP^+, reference compound]
Km (WT-hNET): 1.56 ± 0.22 µM
Km (WT-hDAT): 2.89 ± 0.48 µM
Km (WT-hSERT): 2.63 ± 0.16 µM
